Assay results taken from patent US20040223918A1, “Aerosolization of cromolyn sodium using a capillary aerosol generator” (Chrysalis Technologies Incorporated, priority 2003, published 2004).

Experiments:
[1] = cited from earlier work
[2] = Solubility of cromolyn sodium in ethanol and PG/EtOH mixtures; assay type: physicochemical; details: Table 4 PG/EtOH mixtures, 0.25% Brij30 and 0.25% lecithin
From the text: FIG. 7 is a graph illustrating the solubility of cromolyn sodium in various propylene glycol/ethanol (PG/EtOH) mixtures, with 0.25% Brij30 and 0.25% lecithin. […] When formulated with 0.25% w/v Brij 30 and 0.25% lecithin, cromolyn sodium suspension formulations remained visually stable over a period of one to two weeks. There was no significant change in the particle size distribution of the suspended particles up to three days of standing at ambient condition. The addition of PG was primarily to prevent capillary clogging. The amount of PG required in the formulation was dependent on the API concentration.

For O=C(O)c1cc(=O)c2c(OCC(O)COc3cccc4oc(C(=O)O)cc(=O)c34)cccc2o1 [cromolyn sodium], the solubility in ethanol [1] is listed as “virtually insoluble” and the “solubility in PG/EtOH mixtures” value [2] is listed as “almost insoluble”.
